Assay results: patent US7144585B1, “Cilostazol preparation” (Otsuka Pharmaceutical Co., Ltd., priority 1999, dated 2006)
Like-named read-outs stand apart in the source and are kept apart here.

What was measured:
[1] = Absorption test at upper and lower portions of the digestive tract (Test Example 8); assay type: in vivo; conditions: rats; for AUC: read-out: AUCO-2 hr
Procedure: (§1) Preparations of Examples 1, 2, 4 and 5 and Comparative Example 1 were directly administered in a large intestine loop of female rats (3 or 4 rats per group) in the amount of 100 mg/kg calculated on the basis of cilostazol (CLZ). Then, blood was collected with a lapse of time and cilostazol concentration in blood was measured. An average cilostazol concentration in blood is shown in Table 10 and pharmacokinetic parameters after administration are shown in Table 11.
Absorption Test of Slightly Soluble Drug at Upper and Lower Portions of the Digestive Tract.
In the same manner as in Test Example 1, preparations of Example 2 and Comparative Examples 1 and 5 were directly administered in the duodenum and the large intestine of rats. Then, blood was collected with a lapse of time and cilostazol concentration in blood was measured.

[2] = Cilostazol dissolution test, Paddle method, 0.3% SLS (Test Example 2); assay type: physicochemical
Procedure: Preparations of Examples 1, 2 and 4 and Comparative Example 1 were weighed in the amount of 100 mg calculated on the basis of cilostazol and subjected to a dissolution test under the following conditions. To evaluate the dissolution rate, the dissolution percentage was compared after two minutes had passed since the beginning of the test.
Conditions of Dissolution Test
Dissolution test solution: 900 mL of aqueous 0.3% sodium lauryl sulfate solution
Amount of sample: amount corresponding to 100 mg of cilostazol per vessel

[3] = Absorption test of cilostazol into the large intestine (Test Example 1); assay type: in vivo, rats
Procedure: Absorption Test of Cilostazol into the Large Intestine
as §1

[4] = rat, blood, female rats, large intestine loop, 100 mg/kg as CLZ
[5] = directly administered in the duodenum

Compound | AUC ([1]; female, rat, blood, 100 mg/kg, directly administered in the duodenum) [ng·h/mL] | Cmax ([1]; female, rat, blood, 100 mg/kg, directly administered in the duodenum, read-out: Cmax) [ng/mL] | AUCO-2 hr ([1]; directly administered in the large intestine) [ng·h/mL] | dissolution rate / dissolution percentage (in words) ([2]; 0.3% SLS, Paddle 75 rpm) | Dissolution percentage after 2 minutes ([2]; 900 mL aqueous 0.3% sodium lauryl sulfate, Paddle method 75 rpm, 100 mg cilostazol per vessel) [%] | concentration at 0 hr ([3]; rat, blood, other: directly administered in a large intestine loop, female rats, direct administration in large intestine loop, 100 mg/kg as CLZ, time after administration 0 hr) [ng/mL] | concentration at 0.083 hr ([3]; rat, blood, other: directly administered in a large intestine loop, female rats, large intestine loop, 100 mg/kg as CLZ, 0.083 hr after administration) [ng/mL] | concentration at 0.25 hr ([3]; rat, blood, other: directly administered in a large intestine loop, female rats, large intestine loop, 100 mg/kg as CLZ, 0.25 hr after administration) [ng/mL] | concentration at 0.5 hr ([3]; rat, blood, other: directly administered in a large intestine loop, female rats, large intestine loop, 100 mg/kg as CLZ, 0.5 hr after administration) [ng/mL] | concentration at 1 hr ([3]; rat, blood, other: directly administered in a large intestine loop, female rats, large intestine loop, 100 mg/kg as CLZ, 1.0 hr after administration) [ng/mL] | concentration at 2 hr ([3]; rat, blood, other: directly administered in a large intestine loop, female rats, large intestine loop, 100 mg/kg as CLZ, 2.0 hr after administration) [ng/mL] | Cmax [3, 4] [ng/mL] | Tmax [3, 4] [h] | AUC(0-t) ([3]; rat, blood, female rats, large intestine loop, 100 mg/kg as CLZ, read-out: AUC0–2 hr) [ng·h/mL] | blood concentration attained (in words) ([3]; rats, large intestine, within two hours after administration) | AUC ([1]; female, rat, blood, 100 mg/kg, directly administered in the large intestine) [ng·h/mL] | Cmax ([1]; female, rat, blood, 100 mg/kg, directly administered in the large intestine, read-out: Cmax) [ng/mL] | AUCO-2 hr [1, 5] [ng·h/mL] | Cmax [1, 5] [ng/mL]
O=C1CCc2cc(OCCCCc3nnnn3C3CCCCC3)ccc2N1 [Comp. Example 1, cilostazol] | 2590 | 1900 | 186 | low dissolution rate | 22.7 | 0 | 15 | 26 | 51 | 100 | 170 | 170 | 2 | 186 | sufficient blood concentration was not obtained | – | – | – | –
O=C1CCc2cc(OCCCCc3nnnn3C3CCCCC3)ccc2N1 [Comp. Example 5, cilostazol] | – | – | – | – | – | – | – | – | – | – | – | – | – | – | – | 236 | 168 | 3682 | 3002
